ChEMBL document CHEMBL3882737, “Fused heterocyclic compounds as ion channel modulators” (2013)

Columns and labels:
Oryctolagus cuniculus [1] = test: Anti-ischemic activity in anesthetized New Zealand rabbit heart assessed as reduction in ischemia-induced ST segment elevation by measuring MAPD90_ATX levels at 1 uM plasma concentration at 0.1 to 0.4 mg/kg, iv bolus dose dosed 30 mins before ischemia followed by reperfusion; type: functional
Oryctolagus cuniculus [2] = test: Anti-ischemic activity in anesthetized New Zealand rabbit heart assessed as reduction in ischemia-induced ST segment elevation at 0.1 to 0.4 mg/kg, iv bolus dose dosed 30 mins before ischemia followed by reperfusion; type: functional, organism-based
Oryctolagus cuniculus [3] = test: Effect on blood pressure in anesthetized New Zealand rabbit ischemia-induced ST segment elevation model at 0.1 to 0.4 mg/kg, iv bolus dose dosed 30 mins before ischemia followed by reperfusion; type: ADME, organism-based; conditions: in vivo, 0.5 h
Oryctolagus cuniculus [4] = test: Effect on heart rate in anesthetized New Zealand rabbit ischemia-induced ST segment elevation model at 0.1 to 0.4 mg/kg, iv bolus dose dosed 30 mins before ischemia followed by reperfusion; type: ADME, organism-based; conditions: in vivo, 0.5 h
Oryctolagus cuniculus [5] = test: Effect on ECG intervals in anesthetized New Zealand rabbit ischemia-induced ST segment elevation model at 0.1 to 0.4 mg/kg, iv bolus dose dosed 30 mins before ischemia followed by reperfusion; type: ADME, organism-based; conditions: in vivo, 0.5 h
Oryctolagus cuniculus [6] = test: Anti-ischemic activity in anesthetized New Zealand rabbit heart assessed as reduction in ischemia-induced myocardial electrical dysfunction at 0.1 to 0.4 mg/kg, iv bolus dose dosed 30 mins before ischemia followed by reperfusion; type: functional, organism-based
[7] = biological target: Sodium channel protein type 5 subunit alpha (Homo sapiens, UniProt Q14524); test: Inhibition of human NaV1.5 expressed in HEK293 cells assessed as blocking of tefluthrin-induced late sodium currents at 1 uM using -20 mV voltage steps at holding potential of -120 mV by whole cell patch clamp Qpatch method; type: cell-based
[8] = biological target: NaV1.5 (peak sodium current) (Homo sapiens, UniProt Q14524); test: Inhibition of human NaV1.5 expressed in HEK293 cells assessed as use dependent blocking of cell membrane depolarization-induced peak sodium currents at 1 uM at 0 mV and 3 Hz stimulation at holding potential of -100 mV by whole cell patch clamp Qpatch method; type: cell-based; conditions: HEK293 cells that express human NaV1.5
NaV1.5 (peak sodium current), sequence (Q14524 whole entry): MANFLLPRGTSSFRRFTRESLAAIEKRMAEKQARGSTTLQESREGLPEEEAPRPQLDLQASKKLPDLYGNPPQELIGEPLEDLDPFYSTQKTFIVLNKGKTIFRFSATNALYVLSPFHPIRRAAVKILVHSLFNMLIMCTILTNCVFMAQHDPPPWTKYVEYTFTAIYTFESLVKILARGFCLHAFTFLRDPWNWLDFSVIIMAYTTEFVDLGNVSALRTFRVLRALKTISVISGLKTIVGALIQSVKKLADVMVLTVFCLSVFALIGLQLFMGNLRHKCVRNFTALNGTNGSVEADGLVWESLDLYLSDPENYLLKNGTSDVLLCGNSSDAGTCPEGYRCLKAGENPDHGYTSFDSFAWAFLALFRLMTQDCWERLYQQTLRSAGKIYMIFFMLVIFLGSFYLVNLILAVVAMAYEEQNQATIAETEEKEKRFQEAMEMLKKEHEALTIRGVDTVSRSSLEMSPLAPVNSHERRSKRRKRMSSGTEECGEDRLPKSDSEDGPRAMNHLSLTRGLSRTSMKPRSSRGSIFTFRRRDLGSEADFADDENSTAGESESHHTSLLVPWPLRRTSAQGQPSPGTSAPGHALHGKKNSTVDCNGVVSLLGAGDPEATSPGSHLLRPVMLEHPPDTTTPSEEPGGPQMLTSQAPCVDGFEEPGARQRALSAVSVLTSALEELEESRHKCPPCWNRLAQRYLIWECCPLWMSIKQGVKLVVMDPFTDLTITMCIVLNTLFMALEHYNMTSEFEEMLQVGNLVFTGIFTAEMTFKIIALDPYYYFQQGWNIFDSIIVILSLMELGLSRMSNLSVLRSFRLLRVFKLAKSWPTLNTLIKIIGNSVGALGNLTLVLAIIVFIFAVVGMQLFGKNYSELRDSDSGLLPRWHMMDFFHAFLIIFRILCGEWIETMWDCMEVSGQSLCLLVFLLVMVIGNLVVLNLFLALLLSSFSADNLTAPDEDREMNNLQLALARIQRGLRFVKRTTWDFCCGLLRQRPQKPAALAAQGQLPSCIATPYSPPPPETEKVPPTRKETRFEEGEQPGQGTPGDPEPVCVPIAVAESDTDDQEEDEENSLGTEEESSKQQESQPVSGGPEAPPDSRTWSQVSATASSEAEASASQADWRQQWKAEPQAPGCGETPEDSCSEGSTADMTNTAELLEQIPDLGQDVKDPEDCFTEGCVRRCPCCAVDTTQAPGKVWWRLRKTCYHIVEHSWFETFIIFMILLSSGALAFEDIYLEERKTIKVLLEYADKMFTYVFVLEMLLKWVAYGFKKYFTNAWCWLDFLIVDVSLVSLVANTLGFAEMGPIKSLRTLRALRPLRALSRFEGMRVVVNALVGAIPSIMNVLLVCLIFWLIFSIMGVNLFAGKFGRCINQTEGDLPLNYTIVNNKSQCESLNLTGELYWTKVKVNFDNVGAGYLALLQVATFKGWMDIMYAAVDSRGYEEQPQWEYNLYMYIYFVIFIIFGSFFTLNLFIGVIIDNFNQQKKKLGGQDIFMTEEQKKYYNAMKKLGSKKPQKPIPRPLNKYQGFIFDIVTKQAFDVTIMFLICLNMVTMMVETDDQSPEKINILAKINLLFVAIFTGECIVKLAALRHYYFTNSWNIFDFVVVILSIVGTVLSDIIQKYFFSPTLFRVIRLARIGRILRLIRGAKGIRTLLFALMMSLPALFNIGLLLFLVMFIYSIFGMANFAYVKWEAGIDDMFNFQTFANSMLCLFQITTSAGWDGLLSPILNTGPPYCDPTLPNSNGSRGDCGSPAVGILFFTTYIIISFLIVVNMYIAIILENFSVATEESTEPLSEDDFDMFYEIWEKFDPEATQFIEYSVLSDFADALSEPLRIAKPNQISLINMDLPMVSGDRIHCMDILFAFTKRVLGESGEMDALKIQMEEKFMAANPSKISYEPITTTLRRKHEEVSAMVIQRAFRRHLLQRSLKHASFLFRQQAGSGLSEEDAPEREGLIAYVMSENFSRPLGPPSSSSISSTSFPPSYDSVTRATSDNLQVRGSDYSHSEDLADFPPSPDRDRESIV

Sodium channel protein type 5 subunit alpha, sequence (Q14524 whole entry): as above

SMILES: O=C1c2cc(-c3ccc(Cl)cc3)ccc2OCCN1Cc1ncccn1
- inhibition (INH) (Oryctolagus cuniculus [1]): -69%

SMILES: O=C1c2cc(-c3ccc(C(F)(F)F)cc3)ccc2OCCN1Cc1ncccn1
- inhibition (Oryctolagus cuniculus [2]): Dose-dependent effect
- Activity (Oryctolagus cuniculus [3]): Non-Toxic
- Activity (Oryctolagus cuniculus [4]): Non-Toxic
- Activity (Oryctolagus cuniculus [5]): Non-Toxic
- inhibition (Oryctolagus cuniculus [6]): Dose-dependent effect
- inhibition (INH) (Oryctolagus cuniculus [1]): -62%

SMILES: O=C1c2cc(C#Cc3ccc(OC(F)(F)F)cc3)ccc2OCCN1Cc1ncccn1
- inhibition (INH) (Oryctolagus cuniculus [1]): -25%

SMILES: O=C1c2cc(C#Cc3ccc(C(F)(F)F)cc3)ccc2OCCN1Cc1ncccn1
- inhibition (INH) (Oryctolagus cuniculus [1]): -49%

SMILES: O=C1c2cc(-c3ccc(OC(F)(F)F)cc3)ccc2OCCN1Cn1cc(Cl)cn1
- inhibition (INH) (Oryctolagus cuniculus [1]): -23%

SMILES: O=C1c2cc(-c3ccc(OC(F)(F)F)cc3)ccc2OCCN1Cc1ncccn1 [ELECLAZINE]
- inhibition (Oryctolagus cuniculus [2]): Dose-dependent effect
- Activity (Oryctolagus cuniculus [3]): Non-Toxic
- Activity (Oryctolagus cuniculus [4]): Non-Toxic
- Activity (Oryctolagus cuniculus [5]): Non-Toxic
- inhibition (Oryctolagus cuniculus [6]): Dose-dependent effect
- inhibition (INH) (Oryctolagus cuniculus [1]): -56%

SMILES: O=C(c1ncccn1)N1CCOc2ccc(-c3ccc(OC(F)(F)F)cc3)cc2C1
- inhibition (INH) (Oryctolagus cuniculus [1]): -47%

SMILES: O=C1c2cc(-c3ccc(C(F)(F)F)cc3)ccc2OCCN1Cc1cn2ccccc2n1
- inhibition at 1 µM [7]: 32 to 33%
- inhibition (INH) (Oryctolagus cuniculus [1]): -49%

SMILES: Cc1ccnc(CN2CCOc3cnc(-c4ccc(OC(F)(F)F)cc4)cc3C2=O)n1
- inhibition (INH) (Oryctolagus cuniculus [1]): -34%

SMILES: COc1cc(OC)nc(CN2CCOc3ccc(-c4ccc(OC(F)(F)F)cc4)cc3C2=O)n1
- inhibition (INH) (Oryctolagus cuniculus [1]): -27%

SMILES: CC(C)(C)c1ccc(-c2ccc3c(c2)C(=O)N(Cc2ncccn2)CCO3)cc1
- inhibition (INH) (Oryctolagus cuniculus [1]): -50%

SMILES: O=C1c2cc(-c3ccc(C(F)(F)F)cc3F)ccc2OCCN1Cc1ncccn1
- inhibition at 1 µM [8]: 10 to 11%

SMILES: O=C1c2cc(-c3ccc(OC(F)(F)F)cc3)ccc2OCCN1Cc1ccc2ccccc2n1
- inhibition (INH) (Oryctolagus cuniculus [1]): -10%
